Source: PMC3248459, “A Photocytes-Associated Fatty Acid-Binding Protein from the Light Organ of Adult Taiwanese Firefly, Luciola cerata” (PLoS ONE, 2011)
Like-named read-outs stand apart in the source and are kept apart here.

Columns and labels:
Type in all cases: binding
recombinant lcFABP [1] = target: T1, recombinant lcFABP (Luciola cerata, UniProt G1FKW0); experiment: fluorescence (ANS) displacement assay with fatty acids; conditions: for binding strength of lcFABP to ligand (in words): ANS displacement assay, recombinant lcFABP
Method: (§1) The binding property of lcFABP to fatty acids was analyzed by a fluorescence displacement assay using 1-anilinonaphthalene-8-sulfonic acid (ANS) as fluorescent probe. This assay utilizes ANS's property of emitting intense fluorescence when bind to the hydrophobic region of protein non-covalently. The displacement of ANS from ligand binding site of FABPs by fatty acid or other hydrophobic ligand will result in the reduction of fluorescence. In this way, the apparent inhibition constants (Ki) of fatty acid or hydrophobic ligand to FABPs can be measured, [25]-[27].
Recombinant lcFABP was overexpressed in E. coli cells, and purified by a two-step chromatography for ligand binding assay. […] After that, the binding of fatty acid to lcFABP was examined by a competitive displacement titration. […] Conversely, the lcFABP binds moderately to saturated dodecanoic acid (C12:0), monounsaturated oleic acid (C18:1) and polyunsaturated arachidonic acid (C20:4), and poorly to the saturated capric acid (C10:0). These binding studies confirmed that the recombinant lcFABP is a functional protein for fatty acids binding as other reported FABPs, [16].
Fatty acid binding of recombinant lcFABP was assessed by a competitive displacement assay using fluorescence probe ANS as described previously, [27]. F7000 fluorescence spectrophotometer (Hitachi, Tokyo, Japan) was used for measuring the ANS fluorescence signal at the emission 470 nm following excitation at 375 nm. All measurements were carried out in an assay buffer contained 50 mM sodium phosphate, pH 7.5, 140 mM KCl, 5 mM β-ME at 25°C under a dim light. ANS and various fatty acids were prepared freshly in absolute ethanol before used. To evaluate ANS-lcFABP interaction, 2 µM lcFABP in a final volume of 2 ml assay buffer was titrated with 1∼2 ul of ANS from a initial concentration of 0 µM to 80 µM. The apparent dissociation constant (Kd) of ANS-lcFABP complex was measured by nonlinear regression analysis of the binding data as described previously. To evaluated the binding of fatty acids to lcFABP, 2 µM lcFABP was pre-equilibrated with 40 µM ANS for 2 min in assay buffer, and then titrated with increasing concentrations of fatty acids until the reduction of fluorescence became saturate. The apparent inhibition constant (Ki) of each fatty acid to ANS-lcFABP complex was calculated from the displacement data as described previously. All binding experiments were repeated at least three times.

recombinant lcFABP [2] = target: T1, recombinant lcFABP; experiment: time-dependent ANS displacement assay with D-luciferin and palmitic acid (Fig. S2)
Method: In this study, we also investigated whether lcFABP could bind firefly luciferin using ANS displacement assay (Fig. S2).
Fluorescence change was recorded after successively adding lcFABP (until final concentration become 2 µM at 100 s), D-luciferin (Luc; 1 µM at 200 s and 2 µM at 300 s) or palmitic acid (PA; 1 µM at 200 s and 2 µM at 300 s), and the competitive palmitic acid (2 µM at 400 s) or D-luciferin (2 µM at 400 s) to into the ANS (40 µM) containing buffer using time-dependent model. The results have been subtracted of D-luciferin's intrinsic-fluorescence. All experiments are monitored under a detected wavelength of Ex: 370 nm and Em: 450 nm to reduce the interference of D-luciferin intrinsic-fluorescence to the assay. (TIF) Click here for additional data file.

recombinant lcFABP [3] = target: T1, recombinant lcFABP; experiment: ANS fluorescence titration of recombinant lcFABP
Method: as §1
Recombinant lcFABP was overexpressed in E. coli cells, and purified by a two-step chromatography for ligand binding assay. […]
Fatty acid binding of recombinant lcFABP was assessed by a competitive displacement assay using fluorescence probe ANS as described previously, [27]. F7000 fluorescence spectrophotometer (Hitachi, Tokyo, Japan) was used for measuring the ANS fluorescence signal at the emission 470 nm following excitation at 375 nm. […] The apparent dissociation constant (Kd) of ANS-lcFABP complex was measured by nonlinear regression analysis of the binding data as described previously. To evaluated the binding of fatty acids to lcFABP, 2 µM lcFABP was pre-equilibrated with 40 µM ANS for 2 min in assay buffer, and then titrated with increasing concentrations of fatty acids until the reduction of fluorescence became saturate. […]

[4] = apparent inhibition constant, 2 µM lcFABP pre-equilibrated with 40 µM ANS, pH 7.5, 25°C, at least three repeats, read-out: Ki

T1 sequence (G1FKW0 entry or part of it): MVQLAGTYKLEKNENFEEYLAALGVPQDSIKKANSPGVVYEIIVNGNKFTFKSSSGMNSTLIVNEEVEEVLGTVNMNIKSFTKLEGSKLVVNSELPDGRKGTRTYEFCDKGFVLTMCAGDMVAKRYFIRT

SMILES	Ki (recombinant lcFABP [1])	binding strength of lcFABP to ligand (in words) (recombinant lcFABP [1])	other results
CCCCCCCCCCCCCCCC(=O)O [Palmitic acid]	0.55 ± 0.12 µM	strongly	reduction of fluorescence (recombinant lcFABP [2]; 2 µM lcFABP, 40 µM ANS, ligand added at 1-2 µM, luciferin intrinsic fluorescence subtracted, Ex 370 nm, Em 450 nm): ≤ 40%
CCCCCCCCCCCCCC(=O)O [Myristic acid]	0.64 ± 0.14 µM	strongly	
CCCCCCCCCC(=O)O [Capric acid]		poorly	Ki (recombinant lcFABP [1]; [4]): 118 ± 6.24 µM
CCCCCCCCCCCC(=O)O [Dodecanoic acid]	1.67 ± 0.15 µM	moderately	
CCCCCCCC/C=C\CCCCCCCC(=O)O [Oleic acid]	1 ± 0.17 µM	moderately	
O=C(O)[C@H]1CSC(c2nc3ccc(O)cc3s2)=N1 [luciferin, D-luciferin]			interaction of lcFABP with ligand (in words) (recombinant lcFABP [2]): weakly; reduction of fluorescence (recombinant lcFABP [2]): about 12%
O=S(=O)(O)c1cccc2cccc(Nc3ccccc3)c12 [ANS, 1-anilinonaphthalene-8-sulfonic acid]			Kd (recombinant lcFABP [3]): 11.2 ± 1.5 µM
CCCCCCCCCCCCCCCCCC(=O)O [Steric acid]		strongly	Ki (recombinant lcFABP [1]; [4]): 0.25 ± 0.01 µM
CCCCC/C=C\C/C=C\C/C=C\C/C=C\CCCC(=O)O [Arachidonic acid]	1.59 ± 0.16 µM	moderately	
